For 16 molecules, IC50 results are on record in patent US9133183B2, “Imidazolidinones and analogs exhibiting anti-cancer and anti-proliferative activities” (Deciphera Pharmaceuticals, LLC, priority 2013, dated 2015).

Structures are written as SMILES.

The target in assay [1] is c-FMS kinase in THP-1 cells (Homo sapiens (Human), UniProt P07333). The experiment in a line: Phospho-FMS ELISA assay in THP-1 cells. Type of assay: cell-based. The conditions noted are these: 4 h compound, M-CSF stimulation 5 min; read-out: pFMS inhibition in THP-1 cells. The method, then:
THP-1 cells (catalog #TIB-202) were obtained from the ATCC. Briefly, cells were grown in RPMI 1640 supplemented with 10% characterized fetal bovine serum, 1% sodium pyruvate, 1% Penicillin-Streptomycin-Glutamine (PSG) and 55 uM 2-mercaptoethanol (Invitrogen, Carlsbad, Calif.) at 37 degrees Celsius, 5% CO2, 95% humidity. Cells were allowed to expand until reaching 70-95% confluency at which point they were subcultured or harvested for assay use.
A serial dilution of test compound was diluted 1:100 in assay medium (RPMI 1640 supplemented with 10% characterized fetal bovine serum) in a 96 well black clear bottom plate (Corning, Corning, N.Y.). In a separate 96 well black clear bottom plate, one hundred and fifty thousand THP-1 cells were added per well in 100 μL in assay medium. Fifty microliters of diluted compound was then added to the cells. Plates were incubated for 4 hours at 37 degrees Celsius, 5% CO2, 95% humidity. At the end of the incubation period, cells were stimulated with 50 μL of a 100 nM solution of recombinant human M-CSF (catalog #216-MC, R & D Systems, Minneapolis, Minn.) in assay medium and the plate was incubated for 5 minutes at 37 degrees Celsius, 5% CO2, 95% humidity. Lysates were prepared and used to perform the phospho-FMS ELISA as described by the manufacturer (catalog #DYC3268, R & D Systems, Minneapolis, Minn.). GraphPad Prism was used to calculate IC50 values obtained from data generated from the ELISA assay.
A general note: ELISA stands for enzyme-linked immunosorbent assay.

Assay [2] has as its target unphosphorylated PDGFRβ kinase (uPDGFRβ, Seq. ID No. 3) (Homo sapiens (Human), UniProt P09619). Put plainly: Unphosphorylated PDGFRβ kinase assay (coupled pyruvate kinase/lactate dehydrogenase). Type of assay: biochemical. The conditions noted are these: enzymatic assay, ATP 500 μM. The method, boiled down: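 Construct residues 557-1106, unphosphorylated, 15.7 nM, with poly E4Y 2.5 mg/mL and 500 μM ATP, Tris pH 7.5, 1% DMSO, 30 °C. ADP coupled to NADH oxidation via PK/LDH, A340 followed 4 h; rate from 1.5-2.5 h versus no-compound control, IC50 from percent-inhibition series.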

The test system of a further assay is osteoclast precursors. Put plainly: Osteoclast tartrate-resistant acid phosphatase assay. Type of assay: cell-based. The conditions noted are these: Osteoclast, 7-14 days, RANKL and M-CSF.
The next assay deals with M-NFS-60 cells. Put plainly: M-NFS-60 cell proliferation assay (resazurin). The conditions noted are these: 67 h incubation. Type of assay: cell-based. The method, boiled down: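 Cells kept in medium containing 20 ng/mL mouse recombinant M-CSF. Fluorescence was read at ex 540/em 600 nm, and IC50 was fitted from percent inhibition across a range of inhibitor concentrations.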
A general note: The colour change of resazurin is a common sign of viable cells or microbes.

Chain of c-FMS kinase in THP-1 cells (P07333 20-972): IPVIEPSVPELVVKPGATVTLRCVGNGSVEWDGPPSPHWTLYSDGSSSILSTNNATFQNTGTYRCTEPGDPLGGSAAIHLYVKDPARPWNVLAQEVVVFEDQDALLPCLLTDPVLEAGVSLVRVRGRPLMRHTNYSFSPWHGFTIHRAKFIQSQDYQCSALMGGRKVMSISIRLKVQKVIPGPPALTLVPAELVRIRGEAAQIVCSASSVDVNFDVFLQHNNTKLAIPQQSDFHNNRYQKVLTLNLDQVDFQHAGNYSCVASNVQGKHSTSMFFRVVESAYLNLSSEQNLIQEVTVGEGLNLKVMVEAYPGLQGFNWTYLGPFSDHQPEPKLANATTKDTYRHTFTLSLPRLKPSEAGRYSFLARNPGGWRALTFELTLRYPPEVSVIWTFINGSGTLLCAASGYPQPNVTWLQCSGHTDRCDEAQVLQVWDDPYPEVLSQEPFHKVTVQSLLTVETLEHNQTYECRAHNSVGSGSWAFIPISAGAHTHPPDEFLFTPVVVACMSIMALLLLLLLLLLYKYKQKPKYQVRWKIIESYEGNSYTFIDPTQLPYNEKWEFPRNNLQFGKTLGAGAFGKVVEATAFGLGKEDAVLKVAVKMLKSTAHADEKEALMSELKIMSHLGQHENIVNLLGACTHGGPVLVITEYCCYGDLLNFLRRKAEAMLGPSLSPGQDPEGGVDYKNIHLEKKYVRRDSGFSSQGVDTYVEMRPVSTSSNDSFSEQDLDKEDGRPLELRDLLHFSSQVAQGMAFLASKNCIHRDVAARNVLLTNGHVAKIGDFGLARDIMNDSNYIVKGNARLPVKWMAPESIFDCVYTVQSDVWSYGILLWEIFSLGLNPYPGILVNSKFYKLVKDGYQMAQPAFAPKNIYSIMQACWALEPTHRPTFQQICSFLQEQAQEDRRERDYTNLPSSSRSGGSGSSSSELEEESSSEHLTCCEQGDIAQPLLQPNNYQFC
Chain of unphosphorylated PDGFRβ kinase (uPDGFRβ, Seq. ID No. 3) (P09619 557-1106): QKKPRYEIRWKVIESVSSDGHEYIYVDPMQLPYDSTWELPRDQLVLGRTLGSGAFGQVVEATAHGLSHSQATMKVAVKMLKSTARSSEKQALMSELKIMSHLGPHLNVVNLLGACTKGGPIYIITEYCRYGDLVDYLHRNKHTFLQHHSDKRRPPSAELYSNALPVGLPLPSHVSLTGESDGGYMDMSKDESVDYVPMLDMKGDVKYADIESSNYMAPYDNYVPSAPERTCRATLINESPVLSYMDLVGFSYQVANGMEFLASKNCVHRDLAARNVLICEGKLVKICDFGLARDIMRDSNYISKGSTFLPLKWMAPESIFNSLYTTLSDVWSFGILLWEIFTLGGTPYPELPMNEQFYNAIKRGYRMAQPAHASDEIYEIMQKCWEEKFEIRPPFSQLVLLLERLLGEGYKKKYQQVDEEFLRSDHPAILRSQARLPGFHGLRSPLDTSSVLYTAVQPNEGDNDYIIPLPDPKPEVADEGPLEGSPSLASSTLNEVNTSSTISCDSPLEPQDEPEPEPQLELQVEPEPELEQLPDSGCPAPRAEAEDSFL

With `Cn1cc(-c2cc(Oc3ccc(NC(=O)N4CCN(C5CCOC5)C4=O)nc3)ccn2)cn1` (stereo in doubt) [Example 12, (S)—N-(5-((2-(1-methyl-1H-pyrazol-4-yl)pyridin-4-yl)oxy)pyridin-2-yl)-2-oxo-3-(tetrahydrofuran-3-yl)imidazolidine-1-carboxamide], the IC50 in assay [1] was 10 to 100 nM; in assay [2] it was over 1000 nM; in the assay on osteoclast precursors, under 10 nM; in the assay on M-NFS-60 cells, 10 to 100 nM.
On to `Cn1cc(-c2cc(Oc3ccc(NC(=O)N4CCN(C5CCOCC5)C4=O)nc3)ccn2)cn1` [Example 1, N-(5-((2-(1-methyl-1H-pyrazol-4-yl)pyridin-4-yl)oxy)pyridin-2-yl)-2-oxo-3-(tetrahydro-2H-pyran-4-yl)imidazolidine-1-carboxamide], for which the IC50 in assay [1] lay in the range of 10 to 100 nM; in assay [2] it was 100 to 1000 nM; in the assay with osteoclast precursors it was 10 to 100 nM; with M-NFS-60 cells, 10 to 100 nM.
As for `Cc1nc(NC(=O)N2CCN(C3CCOCC3)C2=O)ccc1Oc1ccnc(-c2cnn(C)c2)c1` [Example 3, N-(6-methyl-5-((2-(1-methyl-1H-pyrazol-4-yl)pyridin-4-yl)oxy)pyridin-2-yl)-2-oxo-3-(tetrahydro-2H-pyran-4-yl)imidazolidine-1-carboxamide], the IC50 is 10 to 100 nM in assay [1], over 1000 nM in assay [2], 10 to 100 nM in the assay on osteoclast precursors and 10 to 100 nM with M-NFS-60 cells.
On to `CCn1cc(-c2cc(Oc3ccc(NC(=O)N4CCN(C5CCOCC5)C4=O)nc3)ccn2)cn1` [Example 4, N-(5-((2-(1-ethyl-1H-pyrazol-4-yl)pyridin-4-yl)oxy)pyridin-2-yl)-2-oxo-3-(tetrahydro-2H-pyran-4-yl)imidazolidine-1-carboxamide], for which the IC50 in assay [1] was under 10 nM; in assay [2], 100 to 1000 nM; in the assay with osteoclast precursors it was 10 to 100 nM; in the assay on M-NFS-60 cells, 10 to 100 nM.
With `Cc1cc(-c2cc(Oc3ccc(NC(=O)N4CCN(C5CCOCC5)C4=O)nc3)ccn2)on1` [Example 7, N-(5-((2-(3-methylisoxazol-5-yl)pyridin-4-yl)oxy)pyridin-2-yl)-2-oxo-3-(tetrahydro-2H-pyran-4-yl)imidazolidine-1-carboxamide], the IC50 was 10 to 100 nM in assay [1], over 1000 nM in assay [2], 10 to 100 nM in the assay on osteoclast precursors and 10 to 100 nM in the assay on M-NFS-60 cells.
In the case of `COCCN1CCN(C(=O)Nc2ccc(Oc3ccnc(-c4cnn(C)c4)c3)cn2)C1=O` [Example 10, 3-(2-methoxyethyl)-N-(5-((2-(1-methyl-11H-pyrazol-4-yl)pyridin-4-yl)oxy)pyridin-2-yl)-2-oxoimidazolidine-1-carboxamide], the IC50 in assay [1] is under 10 nM; in assay [2], over 1000 nM; in the assay with osteoclast precursors it was 10 to 100 nM; in the assay on M-NFS-60 cells, 10 to 100 nM.
Turning to `COCCCN1CCN(C(=O)Nc2ccc(Oc3ccnc(-c4cnn(C)c4)c3)cn2)C1=O` [Example 11, 3-(3-methoxypropyl)-N-(5-((2-(1-methyl-1H-pyrazol-4-yl)pyridin-4-yl)oxy)pyridin-2-yl)-2-oxoimidazolidine-1-carboxamide], the IC50 in assay [1] was 10 to 100 nM; in assay [2], over 1000 nM; in the assay on osteoclast precursors it was under 10 nM; with M-NFS-60 cells, 10 to 100 nM.
With `COC[C@H](C)N1CCN(C(=O)Nc2ccc(Oc3ccnc(-c4cnn(C)c4)c3)cn2)C1=O` [Example 16, (S)-3-(1-methoxypropan-2-yl)-N-(5-((2-(1-methyl-11H-pyrazol-4-yl)pyridin-4-yl)oxy)pyridin-2-yl)-2-oxoimidazolidine-1-carboxamide], the IC50 in assay [1] was 10 to 100 nM; in assay [2], 100 to 1000 nM; with osteoclast precursors it was under 10 nM; in the assay on M-NFS-60 cells, 10 to 100 nM.
In the case of `COCCN1CCN(C(=O)Nc2ccc(Oc3ccnc(-c4cnn(C)c4)c3)c(C)n2)C1=O` [Example 18, 3-(2-methoxyethyl)-N-(6-methyl-5-((2-(1-methyl-1H-pyrazol-4-yl)pyridin-4-yl)oxy)pyridin-2-yl)-2-oxoimidazolidine-1-carboxamide], the IC50 in assay [1] was 10 to 100 nM; in assay [2], over 1000 nM; in the assay on osteoclast precursors, 10 to 100 nM; with M-NFS-60 cells it was 100 to 1000 nM.
Regarding `COCCCN1CCN(C(=O)Nc2ccc(Oc3ccnc(-c4cnn(C)c4)c3)c(C)n2)C1=O` [Example 19, 3-(3-methoxypropyl)-N-(6-methyl-5-((2-(1-methyl-1H-pyrazol-4-yl)pyridin-4-yl)oxy)pyridin-2-yl)-2-oxoimidazolidine-1-carboxamide], the IC50 was 10 to 100 nM in assay [1], over 1000 nM in assay [2], 10 to 100 nM with osteoclast precursors and 10 to 100 nM with M-NFS-60 cells.
Consider `Cc1nc(NC(=O)N2CCN(C3COC3)C2=O)ccc1Oc1ccnc(-c2cnn(C)c2)c1` [Example 20, N-(6-methyl-5-((2-(1-methyl-1H-pyrazol-4-yl)pyridin-4-yl)oxy)pyridin-2-yl)-3-(oxetan-3-yl)-2-oxoimidazolidine-1-carboxamide], for which the IC50 in assay [1] was 10 to 100 nM; in assay [2], over 1000 nM; with osteoclast precursors it was 10 to 100 nM; with M-NFS-60 cells it was 10 to 100 nM.
As to `Cn1cc(-c2cc(Oc3ccc(NC(=O)N4CCN(CCOC(F)(F)F)C4=O)nc3)ccn2)cn1` [Example 21, N-(5-((2-(1-methyl-1H-pyrazol-4-yl)pyridin-4-yl)oxy)pyridin-2-yl)-2-oxo-3-(2-(trifluoromethoxy)ethyl)imidazolidine-1-carboxamide], the IC50 was 10 to 100 nM in assay [1], over 1000 nM in assay [2], 10 to 100 nM in the assay with osteoclast precursors and 10 to 100 nM in the assay on M-NFS-60 cells.
As for `Cc1nc(NC(=O)N2CCN(C3CCCCC3)C2=O)ccc1Oc1ccnc(-c2cnn(C)c2)c1` [Example 22, 3-cyclohexyl-N-(6-methyl-5-((2-(1-methyl-1H-pyrazol-4-yl)pyridin-4-yl)oxy)pyridin-2-yl)-2-oxoimidazolidine-1-carboxamide], the IC50 is 10 to 100 nM in assay [1], over 1000 nM in assay [2], under 10 nM with osteoclast precursors and under 10 nM in the assay with M-NFS-60 cells.
On to `Cn1cc(-c2cc(Oc3ccc(NC(=O)N4CCN(C5CCC(F)(F)CC5)C4=O)nc3)ccn2)cn1` [Example 25, 3-(4,4-difluorocyclohexyl)-N-(5-((2-(1-methyl-1H-pyrazol-4-yl)pyridin-4-yl)oxy)pyridin-2-yl)-2-oxoimidazolidine-1-carboxamide], for which the IC50 in assay [1] is 10 to 100 nM; in assay [2] it was 10 to 100 nM; in the assay on osteoclast precursors, under 10 nM; with M-NFS-60 cells it was under 10 nM.
Regarding `Cc1nc(NC(=O)N2CCN(C3CCC(F)(F)CC3)C2=O)ccc1Oc1ccnc(-c2cnn(C)c2)c1` [Example 26, 3-(4,4-difluorocyclohexyl)-N-(6-methyl-5-((2-(1-methyl-1H-pyrazol-4-yl)pyridin-4-yl)oxy)pyridin-2-yl)-2-oxoimidazolidine-1-carboxamide], the IC50 is 10 to 100 nM in assay [1], over 1000 nM in assay [2], 10 to 100 nM in the assay with osteoclast precursors and under 10 nM in the assay with M-NFS-60 cells.
Take `Cc1nc(NC(=O)N2CCN(C3CCCC3)C2=O)ccc1Oc1ccnc(-c2cnn(C)c2)c1` [Example 29, 3-cyclopentyl-N-(6-methyl-5-((2-(1-methyl-1H-pyrazol-4-yl)pyridin-4-yl)oxy)pyridin-2-yl)-2-oxoimidazolidine-1-carboxamide]: the IC50 in assay [1] is 10 to 100 nM; in assay [2], over 1000 nM; with osteoclast precursors, under 10 nM; in the assay with M-NFS-60 cells it was under 10 nM.
